According to ChEMBL document CHEMBL3885861, “Open TG-GATES”:

Species on record: Rattus norvegicus
Test: Open TG-GATES - Regimen: Daily Repeat
Assay type: toxicity, organism-based, Sprague-Dawley
Design: regimen Daily Repeat, gender Male, age 6 weeks
Settings: in vivo, po, 10 mg/kg, […], route gavage, dose level Low; for KIDNEY_L / KIDNEY_R / KIDNEY_TOTAL: tissue Kidney; for LIVER: tissue Liver; for ALP / ALT / AST / BUN / CRE / Ca / Cl / DBIL / GLC / IP / K / LDH / Na / PL / RALB / TBIL / TC / TG / TP / gamma-GTP: tissue Plasma

CS(=O)(=O)Nc1ccc([N+](=O)[O-])cc1Oc1ccccc1 [NIMESULIDE]
Lym (tissue Blood, time 28 day): 80.8% | MCHC (tissue Blood, time 28 day): 33.9% | MCV (tissue Blood, time 28 day): 57.7 fL | Mono (tissue Blood, time 28 day): 6.4% | Neu (tissue Blood, time 28 day): 11.6% | PT (tissue Blood, time 28 day): 11.9 s | Plat (tissue Blood, time 28 day): 117.6 x10_4/uL | RBC (tissue Blood, time 28 day): 782.6 x10_4/ul | Ret (tissue Blood, time 28 day): 2.8% | WBC (tissue Blood, time 28 day): 102.3 x10_2/uL | KIDNEY_L (time 7 day): 1.1 g | KIDNEY_R (time 7 day): 1.1 g | KIDNEY_TOTAL (time 7 day): 2.2 g | KIDNEY_L (time 14 day): 1.2 g | KIDNEY_R (time 14 day): 1.2 g | KIDNEY_TOTAL (time 14 day): 2.4 g | KIDNEY_L (time 28 day): 1.4 g | KIDNEY_R (time 28 day): 1.4 g | KIDNEY_TOTAL (time 28 day): 2.8 g | LIVER (time 7 day): 11.6 g | LIVER (time 14 day): 14.2 g | LIVER (time 28 day): 16.7 g | ALP (time 7 day): 890.6 IU/L | ALT (time 7 day): 36.6 IU/L | AST (time 7 day): 64.4 IU/L | BUN (time 7 day): 20 mg/dL | CRE (time 7 day): 0.5 mg/dL | Ca (time 7 day): 10.5 mg/dL | Cl (time 7 day): 105.4 meq/L | DBIL (time 7 day): 0.016 mg/dL | GLC (time 7 day): 200.8 mg/dL | IP (time 7 day): 7.6 mg/dL | K (time 7 day): 4.6 meq/L | LDH (time 7 day): 97 IU/L | Na (time 7 day): 140.4 meq/L | PL (time 7 day): 159.6 mg/dL | RALB (time 7 day): 4.1 g/dL | TBIL (time 7 day): 0.3 mg/dL | TC (time 7 day): 81.4 mg/dL | TG (time 7 day): 97.8 mg/dL | TP (time 7 day): 5.9 g/dL | gamma-GTP (time 7 day): 1.4 IU/L | ALP (time 14 day): 649.2 IU/L | ALT (time 14 day): 30.6 IU/L | AST (time 14 day): 63.6 IU/L | BUN (time 14 day): 21 mg/dL | CRE (time 14 day): 0.6 mg/dL | Ca (time 14 day): 10.6 mg/dL | Cl (time 14 day): 106.4 meq/L | DBIL (time 14 day): 0 mg/dL | GLC (time 14 day): 201.8 mg/dL | IP (time 14 day): 7.1 mg/dL | K (time 14 day): 4.6 meq/L | LDH (time 14 day): 88.6 IU/L | Na (time 14 day): 141 meq/L | PL (time 14 day): 161 mg/dL | RALB (time 14 day): 3.9 g/dL | TBIL (time 14 day): 0.3 mg/dL | TC (time 14 day): 78 mg/dL | TG (time 14 day): 147.6 mg/dL | TP (time 14 day): 5.9 g/dL | gamma-GTP (time 14 day): 1.8 IU/L | ALP (time 28 day): 745.8 IU/L | ALT (time 28 day): 34.6 IU/L | AST (time 28 day): 65.2 IU/L | BUN (time 28 day): 20 mg/dL | CRE (time 28 day): 0.6 mg/dL | Ca (time 28 day): 10.6 mg/dL | Cl (time 28 day): 108.4 meq/L | DBIL (time 28 day): 0.004 mg/dL | GLC (time 28 day): 197 mg/dL | IP (time 28 day): 6.8 mg/dL | K (time 28 day): 4.6 meq/L | LDH (time 28 day): 95.2 IU/L | Na (time 28 day): 144.2 meq/L | PL (time 28 day): 147.2 mg/dL | RALB (time 28 day): 4.1 g/dL | TBIL (time 28 day): 0.3 mg/dL | TC (time 28 day): 65.8 mg/dL | TG (time 28 day): 167 mg/dL | TP (time 28 day): 6.2 g/dL | gamma-GTP (time 28 day): 1.8 IU/L
